Measurements reported in ChEMBL document CHEMBL5150005, “Discovery of 5-{4-[(7-Ethyl-6-oxo-5,6-dihydro-1,5-naphthyridin-3-yl)methyl]piperazin-1-yl}-N-methylpyridine-2-carboxamide (AZD5305): A PARP1-DNA Trapper with High Selectivity for PARP1 over PARP2 and Other PARPs” (J Med Chem, 2021).
In brackets after ≈: the same amount, converted by molar mass. Activity calls are given as the source filed them. The rule behind the calls is not given here.

Legend:
physchem = details: buffer, pH 7.4
in vitro [1] = details: human, liver microsomes
[2] = molecular target: Voltage-gated inwardly rectifying potassium channel KCNH2 (Homo sapiens, UniProt Q12809); experiment: Inhibition of human ERG; format: toxicity
[3] = molecular target: Poly [ADP-ribose] polymerase 2 (Homo sapiens, UniProt Q9UGN5); experiment: Inhibition of human recombinant N-terminal Avi-6His-TEV tagged PARP2 full length expressed in pFastBac expression system incubated for 4 hrs by fluorescence anisotropy binding assay
[4] = Aqueous solubility of the compound at pH 7.4; format: physicochemical; details: buffer
DLD-1 = experiment: Antiproliferative activity against human DLD-1 deficient in BRCA-2 cells measured after 7 days; format: functional, cell-based
[5] = molecular target: Poly [ADP-ribose] polymerase 1 (Homo sapiens, UniProt P09874)
[6] = Hematotoxicity in CD34+ hematopoietic stem/progenitor cells (unknown origin) assessed as reduction of cell viability treated for 5 days by cell-tire-Glo-2.0 luminescence based assay; format: toxicity, CD34-positive hematopoietic stem/progenitor cell
[7] = molecular target: Protein mono-ADP-ribosyltransferase TIPARP (Homo sapiens) (UniProt Q7Z3E1)
[8] = molecular target: Protein mono-ADP-ribosyltransferase PARP12 (Homo sapiens, UniProt Q9H0J9)
[9] = Hematotoxicity in CD34+ hematopoietic stem/progenitor cells (unknown origin) assessed as remaining viable cells treated at 100 nM for 5 days by cell-tire-Glo-2.0 luminescence based assay relative to control; format: toxicity, CD34-positive hematopoietic stem/progenitor cell; details: time 5 day, read-out: Activity
[10] = molecular target: T1, Protein mono-ADP-ribosyltransferase PARP9 (Homo sapiens, UniProt Q8IXQ6)
[11] = Hematotoxicity in CD34+ hematopoietic stem/progenitor cells (unknown origin) assessed as reduction of cell viability treated at 0.00001 to 100 uM for 5 days by cell-tire-Glo-2.0 luminescence based assay relative to control; format: toxicity; details: cd34-positive hematopoietic stem/progenitor cell, 120 h, dose lower 1e-05 µM, dose upper 100 µM, time 5 day
[12] = molecular target: Poly [ADP-ribose] polymerase tankyrase-2 (Homo sapiens) (UniProt Q9H2K2)
[13] = molecular target: Protein mono-ADP-ribosyltransferase PARP8 (Homo sapiens, UniProt Q8N3A8); experiment: Binding affinity to PARP8 (unknown origin) assessed as apparent dissociation constant; details: read-out: Kd(app)
[14] = Intrinsic clearance in human hepatocytes measured per million of cells; format: ADME, cell-based, Hepatocyte; details: read-out: CLH
[15] = molecular target: Protein mono-ADP-ribosyltransferase PARP14 (Homo sapiens) (UniProt Q460N5)
[16] = molecular target: Protein mono-ADP-ribosyltransferase PARP12 (Homo sapiens) (UniProt Q9H0J9)
[17] = molecular target: T2, Protein mono-ADP-ribosyltransferase PARP8 (Homo sapiens) (UniProt Q8N3A8)
T2 sequence (whole entry): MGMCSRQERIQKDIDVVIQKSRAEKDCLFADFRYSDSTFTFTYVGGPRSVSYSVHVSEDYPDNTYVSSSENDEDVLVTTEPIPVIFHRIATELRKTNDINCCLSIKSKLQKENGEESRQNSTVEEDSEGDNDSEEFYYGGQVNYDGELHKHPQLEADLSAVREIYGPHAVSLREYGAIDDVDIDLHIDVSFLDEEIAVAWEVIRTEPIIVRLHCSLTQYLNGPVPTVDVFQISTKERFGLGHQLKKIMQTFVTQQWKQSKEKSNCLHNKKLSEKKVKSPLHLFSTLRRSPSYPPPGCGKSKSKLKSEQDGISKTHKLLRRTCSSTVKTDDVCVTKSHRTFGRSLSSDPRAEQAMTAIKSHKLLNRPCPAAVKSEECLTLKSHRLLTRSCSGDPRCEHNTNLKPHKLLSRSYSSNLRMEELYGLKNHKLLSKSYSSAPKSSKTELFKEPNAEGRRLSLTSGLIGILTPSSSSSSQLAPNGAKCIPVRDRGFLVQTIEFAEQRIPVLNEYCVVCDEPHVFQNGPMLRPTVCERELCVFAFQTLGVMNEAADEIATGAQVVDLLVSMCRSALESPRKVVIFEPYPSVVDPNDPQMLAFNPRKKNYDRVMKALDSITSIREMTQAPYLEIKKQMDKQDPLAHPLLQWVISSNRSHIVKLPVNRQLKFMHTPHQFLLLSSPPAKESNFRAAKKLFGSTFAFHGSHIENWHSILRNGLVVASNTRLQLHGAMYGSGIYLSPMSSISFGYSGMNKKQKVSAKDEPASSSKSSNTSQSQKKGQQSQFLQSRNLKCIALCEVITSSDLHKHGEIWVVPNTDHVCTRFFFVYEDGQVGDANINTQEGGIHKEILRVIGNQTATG

[18] = molecular target: Protein mono-ADP-ribosyltransferase PARP11 (Homo sapiens, UniProt Q9NR21)
[19] = molecular target: T1, Protein mono-ADP-ribosyltransferase PARP9; experiment: Binding affinity to PARP9 (unknown origin) assessed as apparent dissociation constant; details: read-out: Kd(app)
in vitro [20] = details: human, Caco-2, pH 7.4
[21] = molecular target: Poly [ADP-ribose] polymerase tankyrase-1 (Homo sapiens, UniProt O95271)

Chain of Poly [ADP-ribose] polymerase 2 (Q9UGN5 whole entry): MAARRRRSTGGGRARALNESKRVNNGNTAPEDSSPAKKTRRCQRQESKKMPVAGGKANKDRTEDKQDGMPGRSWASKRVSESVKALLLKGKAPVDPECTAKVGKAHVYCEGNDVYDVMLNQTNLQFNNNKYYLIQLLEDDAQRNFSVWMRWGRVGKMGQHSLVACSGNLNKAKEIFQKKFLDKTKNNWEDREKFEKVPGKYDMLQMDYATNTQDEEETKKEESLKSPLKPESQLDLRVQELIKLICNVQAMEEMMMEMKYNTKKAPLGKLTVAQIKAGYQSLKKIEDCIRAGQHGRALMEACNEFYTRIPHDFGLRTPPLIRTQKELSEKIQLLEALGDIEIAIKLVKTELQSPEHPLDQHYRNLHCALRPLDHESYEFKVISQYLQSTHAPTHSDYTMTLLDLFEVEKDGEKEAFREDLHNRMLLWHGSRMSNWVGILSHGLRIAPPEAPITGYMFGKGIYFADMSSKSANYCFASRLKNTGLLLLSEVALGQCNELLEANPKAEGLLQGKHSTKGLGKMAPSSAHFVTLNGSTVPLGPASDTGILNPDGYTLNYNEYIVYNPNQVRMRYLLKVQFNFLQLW
Chain of Voltage-gated inwardly rectifying potassium channel KCNH2 (Q12809 whole entry): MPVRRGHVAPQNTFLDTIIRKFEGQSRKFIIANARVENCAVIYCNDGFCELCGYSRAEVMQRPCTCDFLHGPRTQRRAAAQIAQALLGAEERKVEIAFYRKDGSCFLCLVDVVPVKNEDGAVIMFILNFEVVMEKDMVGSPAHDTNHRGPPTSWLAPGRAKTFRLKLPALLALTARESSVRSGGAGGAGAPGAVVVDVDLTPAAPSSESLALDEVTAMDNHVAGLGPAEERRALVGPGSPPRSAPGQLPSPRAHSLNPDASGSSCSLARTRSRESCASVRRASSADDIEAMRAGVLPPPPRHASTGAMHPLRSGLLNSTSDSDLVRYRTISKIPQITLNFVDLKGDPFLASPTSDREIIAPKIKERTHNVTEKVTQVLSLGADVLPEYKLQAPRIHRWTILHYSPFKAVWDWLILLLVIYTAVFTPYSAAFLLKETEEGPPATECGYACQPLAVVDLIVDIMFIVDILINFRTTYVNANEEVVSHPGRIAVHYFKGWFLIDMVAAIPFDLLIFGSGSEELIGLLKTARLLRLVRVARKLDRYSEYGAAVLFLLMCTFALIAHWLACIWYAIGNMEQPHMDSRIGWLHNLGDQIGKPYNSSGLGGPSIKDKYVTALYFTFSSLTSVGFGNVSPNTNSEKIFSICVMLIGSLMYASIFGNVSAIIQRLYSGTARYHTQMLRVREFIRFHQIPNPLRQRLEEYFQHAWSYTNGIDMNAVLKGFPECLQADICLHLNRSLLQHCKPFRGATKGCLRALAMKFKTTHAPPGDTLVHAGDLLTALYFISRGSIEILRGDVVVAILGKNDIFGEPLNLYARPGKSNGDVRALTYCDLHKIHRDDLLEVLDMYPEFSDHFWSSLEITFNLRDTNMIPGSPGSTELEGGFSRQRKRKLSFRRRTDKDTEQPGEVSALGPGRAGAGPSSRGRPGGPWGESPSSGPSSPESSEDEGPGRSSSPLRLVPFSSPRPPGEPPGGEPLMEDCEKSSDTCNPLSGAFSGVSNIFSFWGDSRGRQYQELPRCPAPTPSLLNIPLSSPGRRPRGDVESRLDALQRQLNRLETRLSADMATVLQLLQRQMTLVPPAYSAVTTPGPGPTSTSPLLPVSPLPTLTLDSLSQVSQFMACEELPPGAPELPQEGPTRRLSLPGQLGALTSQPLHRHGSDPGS
Chain of Protein mono-ADP-ribosyltransferase TIPARP (Homo sapiens) (Q7Z3E1 whole entry): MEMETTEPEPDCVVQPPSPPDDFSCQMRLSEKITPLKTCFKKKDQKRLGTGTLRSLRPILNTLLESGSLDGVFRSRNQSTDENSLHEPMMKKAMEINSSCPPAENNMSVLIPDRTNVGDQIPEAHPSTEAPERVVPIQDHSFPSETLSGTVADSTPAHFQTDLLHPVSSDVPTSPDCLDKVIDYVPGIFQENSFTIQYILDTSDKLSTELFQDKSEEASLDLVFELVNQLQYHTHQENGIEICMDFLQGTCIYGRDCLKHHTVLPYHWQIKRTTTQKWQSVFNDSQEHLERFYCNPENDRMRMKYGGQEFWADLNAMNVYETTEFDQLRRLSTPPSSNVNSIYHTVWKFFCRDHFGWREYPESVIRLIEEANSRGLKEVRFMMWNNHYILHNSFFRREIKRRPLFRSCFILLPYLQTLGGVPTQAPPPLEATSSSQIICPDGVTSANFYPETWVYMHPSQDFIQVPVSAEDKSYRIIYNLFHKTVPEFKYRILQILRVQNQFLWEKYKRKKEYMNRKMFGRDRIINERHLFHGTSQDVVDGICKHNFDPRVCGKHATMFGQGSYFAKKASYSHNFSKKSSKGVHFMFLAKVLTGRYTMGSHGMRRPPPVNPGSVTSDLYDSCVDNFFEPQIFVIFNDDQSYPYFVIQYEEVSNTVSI
Chain of Poly [ADP-ribose] polymerase 1 (P09874 whole entry): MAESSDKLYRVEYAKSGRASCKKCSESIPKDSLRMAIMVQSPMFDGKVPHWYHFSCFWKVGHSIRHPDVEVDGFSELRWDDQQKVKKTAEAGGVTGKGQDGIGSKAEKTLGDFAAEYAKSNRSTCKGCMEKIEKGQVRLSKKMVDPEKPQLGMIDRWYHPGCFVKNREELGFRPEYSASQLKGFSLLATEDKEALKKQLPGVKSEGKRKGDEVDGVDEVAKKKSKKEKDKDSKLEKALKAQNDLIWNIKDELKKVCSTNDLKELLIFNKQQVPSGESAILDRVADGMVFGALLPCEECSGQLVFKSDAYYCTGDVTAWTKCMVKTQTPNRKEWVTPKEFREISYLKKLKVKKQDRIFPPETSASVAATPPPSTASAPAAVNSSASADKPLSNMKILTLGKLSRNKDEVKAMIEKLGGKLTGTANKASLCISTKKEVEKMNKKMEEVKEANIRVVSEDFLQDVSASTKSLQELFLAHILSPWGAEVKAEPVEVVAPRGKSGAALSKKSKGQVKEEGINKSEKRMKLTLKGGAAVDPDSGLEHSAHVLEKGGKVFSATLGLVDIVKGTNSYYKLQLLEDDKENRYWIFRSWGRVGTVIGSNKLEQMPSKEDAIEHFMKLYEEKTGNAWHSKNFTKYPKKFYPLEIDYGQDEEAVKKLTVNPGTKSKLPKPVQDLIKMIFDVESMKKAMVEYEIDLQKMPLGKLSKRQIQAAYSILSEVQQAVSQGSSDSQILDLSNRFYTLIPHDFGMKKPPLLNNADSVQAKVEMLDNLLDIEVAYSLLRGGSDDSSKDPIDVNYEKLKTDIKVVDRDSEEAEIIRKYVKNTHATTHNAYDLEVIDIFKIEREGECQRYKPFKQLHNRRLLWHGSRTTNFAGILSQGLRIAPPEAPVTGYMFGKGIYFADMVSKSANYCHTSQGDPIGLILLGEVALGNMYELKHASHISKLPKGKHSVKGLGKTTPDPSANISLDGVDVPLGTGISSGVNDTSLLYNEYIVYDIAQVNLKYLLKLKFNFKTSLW
Chain of Poly [ADP-ribose] polymerase tankyrase-2 (Homo sapiens) (Q9H2K2 whole entry): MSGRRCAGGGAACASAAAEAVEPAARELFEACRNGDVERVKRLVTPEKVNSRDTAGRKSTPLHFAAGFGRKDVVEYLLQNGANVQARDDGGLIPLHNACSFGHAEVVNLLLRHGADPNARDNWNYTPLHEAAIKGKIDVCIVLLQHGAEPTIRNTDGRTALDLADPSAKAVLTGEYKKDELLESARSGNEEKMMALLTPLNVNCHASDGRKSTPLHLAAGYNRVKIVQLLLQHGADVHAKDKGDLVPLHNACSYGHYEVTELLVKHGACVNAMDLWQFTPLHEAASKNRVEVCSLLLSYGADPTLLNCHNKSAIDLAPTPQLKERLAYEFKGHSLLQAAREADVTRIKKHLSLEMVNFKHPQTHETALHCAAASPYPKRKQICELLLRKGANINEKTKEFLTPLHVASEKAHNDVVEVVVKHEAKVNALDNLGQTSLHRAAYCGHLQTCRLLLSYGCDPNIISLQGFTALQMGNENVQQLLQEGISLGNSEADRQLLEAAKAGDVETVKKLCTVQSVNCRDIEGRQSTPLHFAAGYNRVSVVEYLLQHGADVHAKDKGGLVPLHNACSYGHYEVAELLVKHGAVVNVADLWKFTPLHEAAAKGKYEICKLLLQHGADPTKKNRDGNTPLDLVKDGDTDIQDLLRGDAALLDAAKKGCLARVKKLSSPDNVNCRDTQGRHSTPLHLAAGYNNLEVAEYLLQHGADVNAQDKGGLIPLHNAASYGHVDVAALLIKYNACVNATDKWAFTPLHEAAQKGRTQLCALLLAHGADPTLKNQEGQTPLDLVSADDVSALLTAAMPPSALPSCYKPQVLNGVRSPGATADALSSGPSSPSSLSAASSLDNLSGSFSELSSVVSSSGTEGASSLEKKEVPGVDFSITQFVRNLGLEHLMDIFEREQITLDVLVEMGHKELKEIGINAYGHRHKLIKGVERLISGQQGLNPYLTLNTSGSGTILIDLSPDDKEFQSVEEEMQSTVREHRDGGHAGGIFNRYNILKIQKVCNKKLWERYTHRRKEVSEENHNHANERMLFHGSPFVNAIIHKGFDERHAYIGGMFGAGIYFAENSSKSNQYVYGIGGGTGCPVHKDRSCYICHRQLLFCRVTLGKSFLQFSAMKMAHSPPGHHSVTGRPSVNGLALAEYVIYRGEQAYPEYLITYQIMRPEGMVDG
Chain of Protein mono-ADP-ribosyltransferase PARP11 (Q9NR21 whole entry): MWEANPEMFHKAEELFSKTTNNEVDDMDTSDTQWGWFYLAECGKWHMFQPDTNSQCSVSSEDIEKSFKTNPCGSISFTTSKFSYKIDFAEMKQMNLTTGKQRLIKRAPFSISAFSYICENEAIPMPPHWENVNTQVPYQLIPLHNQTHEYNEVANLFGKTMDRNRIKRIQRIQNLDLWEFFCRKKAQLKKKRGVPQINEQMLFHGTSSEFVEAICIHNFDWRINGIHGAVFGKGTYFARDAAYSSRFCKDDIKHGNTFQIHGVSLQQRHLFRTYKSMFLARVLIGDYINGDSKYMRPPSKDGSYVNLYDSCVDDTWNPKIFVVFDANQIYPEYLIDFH

| SMILES | logD (physchem) | microsomal CLint (in vitro [1]) [µL/min/mg] | IC50 [2] [µM] | IC50 [3] [µM] | solubility [4] [µM] | IC50 (DLD-1; Homo sapiens, DLD-1, 168 h) [µM] | further results |
| --- | --- | --- | --- | --- | --- | --- | --- |
| O=c1[nH]c(CCCN2CCN(c3ccc(F)cc3F)CC2)nc2c(Cl)cccc12 | 3.9 | 58 | 1.4 | 22 | 6 (≈ 2.51 µg/mL) | – | – |
| CCc1cc2ccc(CN3CCN(c4ccc(F)cc4F)CC3)cc2[nH]c1=O | 4.2 | 16 | 2.3 | > 26 | 0.2 (≈ 0.0767 µg/mL) | 0.001 | IC50 [5]: 0.008 µM |
| CCc1cc2ccc(CN3CCN(c4cnc(C(=O)NC)cn4)CC3)cc2[nH]c1=O | 2.7 | 18 | > 40 | 5.9 | 2 (≈ 0.813 µg/mL) | 4.4 | – |
| Cn1ncnc1[C@H]1c2n[nH]c(=O)c3cc(F)cc(c23)N[C@@H]1c1ccc(F)cc1 [TALAZOPARIB] | – | – | – | – | – | 0.002 | IC50 at 5 days ([6]; CD34+ hematopoietic stem/progenitor cells): 0.027 µM; Activity ([6]; cd34-positive hematopoietic stem/progenitor cell, 120 h, DDE = dose-dependent effect, dose lower 1e-05 µM, dose upper 100 µM, time 5 day): Dde; Kd(app) [7]: Active; Kd [8]: > 10 µM; viability at 120 h, 0.1 µM [9]: 10%; Kd(app) [10]: Active; Activity [11]: 1%; Kd(app) [12]: Active; Kd [13]: 1.1 µM |
| CCc1cc2cnc(CN3CCN(c4ccc(C(=O)NC)nc4)CC3)cc2[nH]c1=O | 2 | 6 | – | – | 31 (≈ 12.6 µg/mL) | 0.002 | hepatocyte CLint [14]: < 1 µL/min/1e6 cells |
| Cc1cnc(N2CCN(Cc3ccc4c(c3)[nH]c(=O)c3ccccc34)CC2)n1C | 3.3 | 26 | 3.9 | 0.6 | < 12 | – | – |
| C[C@]1(c2nc3c(C(N)=O)cccc3[nH]2)CCCN1 [VELIPARIB] | – | – | – | – | – | – | Kd(app) [7]: Active; Kd(app) [10]: Active; IC50 (DLD-1; dld-1): 0.75 µM; Kd(app) [15]: Active; Kd(app) [16]: Active; Kd(app) [17]: Active |
| CNCc1ccc(-c2[nH]c3cc(F)cc4c3c2CCNC4=O)cc1 [RUCAPARIB] | – | – | – | – | – | 0.027 | Kd [18]: > 10 µM; Kd [19]: 3.1 µM; Kd(app) [12]: Active; Kd [13]: > 10 µM |
| Cc1cnc(N2CCN(CCCc3nc4c(Cl)cccc4c(=O)[nH]3)CC2)n1C | 2.3 | 44 | 1.5 | 4 | 4 (≈ 1.6 µg/mL) | 0.18 | – |
| CCc1cc2ccc(CN3CCN(c4cnc(C(=O)NC)nc4)CC3)cc2[nH]c1=O | 1.8 | < 3 | > 40 | 2.4 | 58 (≈ 23.6 µg/mL) | 2.5 | IC50 [5]: 0.008 µM; efflux ratio (in vitro [20]): 14 |
| CCc1cc2ccc(CN3CCN(c4ncc(C)n4C)CC3)cc2[nH]c1=O | 2.7 | 25 | 12 | 4.2 | 224 (≈ 81.9 µg/mL) | 0.003 | – |
| NC(=O)c1cc(F)cc2c1C(=O)N(C1CCN(C3CCC(F)(F)CC3)CC1)C2 | – | – | – | – | – | 2 | IC50 [21]: > 100 µM |
